# Data reported in paper PMC11378028 (RSC Advances, 2024).
# Key:
# E. coli DNA gyrase = E. coli DNA gyrase (Escherichia coli, UniProt P0AES6); test: DNA gyrase supercoiling plate assay; format: biochemical; conditions: for IC50: IC50 E. coli gyrase, supercoiling assay; for remaining activity at 1 µM / remaining activity at 0.1 µM: read-out: RA (residual activity) E. coli gyrase
# E. coli topoisomerase IV = E. coli topoisomerase IV (Escherichia coli, UniProt P20083); test: topoisomerase IV relaxation plate assay; format: biochemical
# Sequence of E. coli topoisomerase IV (P20083 whole entry): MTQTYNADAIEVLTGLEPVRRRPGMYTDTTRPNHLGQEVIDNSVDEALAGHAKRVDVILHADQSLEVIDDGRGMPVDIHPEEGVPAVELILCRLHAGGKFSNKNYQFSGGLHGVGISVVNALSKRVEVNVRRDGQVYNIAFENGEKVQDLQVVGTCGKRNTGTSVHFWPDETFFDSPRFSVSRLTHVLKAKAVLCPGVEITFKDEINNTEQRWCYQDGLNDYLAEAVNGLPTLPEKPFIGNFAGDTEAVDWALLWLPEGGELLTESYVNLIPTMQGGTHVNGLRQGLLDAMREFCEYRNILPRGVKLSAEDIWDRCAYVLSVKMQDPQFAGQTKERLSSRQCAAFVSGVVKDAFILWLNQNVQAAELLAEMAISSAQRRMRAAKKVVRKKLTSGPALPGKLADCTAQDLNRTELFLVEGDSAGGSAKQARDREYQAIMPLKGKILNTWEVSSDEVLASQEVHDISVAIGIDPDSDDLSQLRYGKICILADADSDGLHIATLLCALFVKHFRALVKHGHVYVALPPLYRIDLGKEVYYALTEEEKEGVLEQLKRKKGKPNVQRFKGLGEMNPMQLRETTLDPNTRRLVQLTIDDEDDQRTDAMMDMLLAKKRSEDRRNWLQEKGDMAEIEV
# Sequence of E. coli topoisomerase IV (P0AFI2 whole entry partner): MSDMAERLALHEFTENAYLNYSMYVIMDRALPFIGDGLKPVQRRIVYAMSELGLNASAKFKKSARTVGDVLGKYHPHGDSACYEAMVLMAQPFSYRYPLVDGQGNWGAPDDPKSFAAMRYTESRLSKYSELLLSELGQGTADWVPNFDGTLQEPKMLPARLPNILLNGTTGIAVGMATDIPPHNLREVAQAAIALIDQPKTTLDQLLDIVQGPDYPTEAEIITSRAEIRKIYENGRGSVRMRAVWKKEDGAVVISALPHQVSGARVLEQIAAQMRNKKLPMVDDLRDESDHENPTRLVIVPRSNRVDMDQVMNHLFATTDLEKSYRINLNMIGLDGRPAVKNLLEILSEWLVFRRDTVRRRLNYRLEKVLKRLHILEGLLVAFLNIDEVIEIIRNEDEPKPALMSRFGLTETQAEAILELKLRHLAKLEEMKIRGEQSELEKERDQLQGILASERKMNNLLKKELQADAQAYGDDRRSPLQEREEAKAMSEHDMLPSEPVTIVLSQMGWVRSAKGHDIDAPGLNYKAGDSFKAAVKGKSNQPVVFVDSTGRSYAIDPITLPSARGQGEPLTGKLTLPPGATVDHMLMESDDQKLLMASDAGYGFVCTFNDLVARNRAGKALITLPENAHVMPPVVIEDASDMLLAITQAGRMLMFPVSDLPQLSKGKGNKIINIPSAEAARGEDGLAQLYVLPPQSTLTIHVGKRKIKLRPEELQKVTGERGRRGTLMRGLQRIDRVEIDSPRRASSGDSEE
# [1] = target: human DNA topoisomerase IIα (Homo sapiens, UniProt P11388); test: human DNA topoisomerase IIα inhibition; format: biochemical; conditions: read-out: RA (residual activity) Human topo IIα
# Sequence of human DNA topoisomerase IIα (P11388 whole entry): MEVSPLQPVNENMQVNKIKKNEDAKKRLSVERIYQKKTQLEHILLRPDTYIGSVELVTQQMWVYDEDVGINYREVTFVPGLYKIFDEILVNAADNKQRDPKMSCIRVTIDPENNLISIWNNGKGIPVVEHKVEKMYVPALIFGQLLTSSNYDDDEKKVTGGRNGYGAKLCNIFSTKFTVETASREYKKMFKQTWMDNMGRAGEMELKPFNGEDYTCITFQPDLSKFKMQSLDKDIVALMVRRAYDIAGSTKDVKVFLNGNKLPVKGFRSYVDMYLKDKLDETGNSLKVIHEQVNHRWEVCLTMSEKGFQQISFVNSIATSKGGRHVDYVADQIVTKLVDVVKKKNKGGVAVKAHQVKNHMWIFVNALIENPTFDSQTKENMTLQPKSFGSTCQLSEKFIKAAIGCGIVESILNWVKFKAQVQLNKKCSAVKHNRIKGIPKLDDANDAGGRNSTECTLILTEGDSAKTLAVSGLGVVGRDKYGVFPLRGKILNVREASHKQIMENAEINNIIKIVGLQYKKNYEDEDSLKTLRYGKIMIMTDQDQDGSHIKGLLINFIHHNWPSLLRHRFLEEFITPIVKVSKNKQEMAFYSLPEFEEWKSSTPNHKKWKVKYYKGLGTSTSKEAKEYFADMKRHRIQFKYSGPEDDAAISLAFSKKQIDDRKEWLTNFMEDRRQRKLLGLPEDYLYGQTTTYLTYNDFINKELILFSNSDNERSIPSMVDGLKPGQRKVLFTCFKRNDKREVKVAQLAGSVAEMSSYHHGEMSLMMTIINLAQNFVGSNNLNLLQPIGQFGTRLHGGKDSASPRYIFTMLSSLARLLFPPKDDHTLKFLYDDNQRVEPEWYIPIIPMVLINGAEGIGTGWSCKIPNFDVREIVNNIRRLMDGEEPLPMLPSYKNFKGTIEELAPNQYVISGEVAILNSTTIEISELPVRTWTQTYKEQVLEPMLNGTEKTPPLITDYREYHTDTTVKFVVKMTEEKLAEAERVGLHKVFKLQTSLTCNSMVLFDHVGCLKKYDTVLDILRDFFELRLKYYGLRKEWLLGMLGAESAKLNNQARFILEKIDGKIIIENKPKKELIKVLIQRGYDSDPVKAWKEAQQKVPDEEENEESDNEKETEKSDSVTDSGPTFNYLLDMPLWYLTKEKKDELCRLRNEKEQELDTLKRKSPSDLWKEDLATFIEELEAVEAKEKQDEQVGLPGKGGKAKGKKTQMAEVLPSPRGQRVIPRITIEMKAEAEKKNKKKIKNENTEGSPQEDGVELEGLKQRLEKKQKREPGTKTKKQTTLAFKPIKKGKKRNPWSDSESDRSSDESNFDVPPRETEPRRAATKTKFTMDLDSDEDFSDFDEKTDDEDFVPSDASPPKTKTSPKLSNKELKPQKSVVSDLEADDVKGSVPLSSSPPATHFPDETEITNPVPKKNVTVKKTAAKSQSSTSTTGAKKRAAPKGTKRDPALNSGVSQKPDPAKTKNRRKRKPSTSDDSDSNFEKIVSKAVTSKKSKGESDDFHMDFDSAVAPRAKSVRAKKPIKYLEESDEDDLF
# S. aureus ATCC 29213 = test: MIC, broth microdilution; format: cell-based, Staphylococcus aureus; conditions: Staphylococcus aureus, ATCC29213, read-out: MIC S. aureus ATCC 29213, broth microdilution
# E. coli ATCC 25922 = test: MIC, broth microdilution; format: cell-based; conditions: Escherichia coli, ATCC25922, read-out: MIC E. coli ATCC 25922
# P. aeruginosa ATCC 27853 = test: MIC, broth microdilution; format: cell-based; conditions: Pseudomonas aeruginosa, ATCC27853, read-out: MIC P. aeruginosa ATCC 27853
# A. baumannii ATCC 19606 = test: MIC, broth microdilution; format: cell-based; conditions: Acinetobacter baumannii, ATCC19606, read-out: MIC A. baumannii ATCC 19606
# [2] = test system: K. pneumoniae ATCC 700603; test: MIC, broth microdilution; format: cell-based; conditions: Klebsiella pneumoniae, ATCC700603, read-out: MIC K. pneumoniae ATCC 700603
# K. aerogenes ATCC 13408 = test: MIC, broth microdilution; format: cell-based; conditions: Klebsiella aerogenes, ATCC13408, read-out: MIC K. aerogenes ATCC 13408
# [3] = test system: S. aureus ATCC 43300 (MRSA); test: MIC, broth microdilution; format: cell-based; conditions: Staphylococcus aureus, ATCC43300|MRSA, read-out: MIC S. aureus ATCC 43300 (MRSA)
# [4] = test system: S. aureus ATCC 700699 (VISA); test: MIC, broth microdilution; format: cell-based; conditions: Staphylococcus aureus, ATCC700699|VISA, read-out: MIC S. aureus ATCC 700699 (VISA)
# A. baumannii ATCC 17978 = test: MIC, broth microdilution; format: cell-based; conditions: Acinetobacter baumannii, ATCC17978, read-out: MIC A. baumannii ATCC 17978
# K. pneumoniae ATCC 10031 = test: MIC, broth microdilution; format: cell-based; conditions: Klebsiella pneumoniae, ATCC10031, read-out: MIC K. pneumoniae ATCC 10031
# [5] = test system: E. spp. cloacae ATCC 13047; test: MIC, broth microdilution; format: cell-based; conditions: read-out: MIC E. spp. cloacae ATCC 13047
# E. faecalis ATCC 29212 = test: MIC, broth microdilution; format: cell-based; conditions: Enterococcus faecalis, ATCC29212, read-out: MIC E. faecalis ATCC 29212
# [6] = read-out: RA (residual activity) E. coli topo IV
compound,measurement,setting,value
"4,5-Dibromo-N-(2-morpholino-4-(5-oxo-4,5-dihydro-1,3,4-oxadiazol-2-yl)phenyl)-1H-pyrrole-2-carboxamide [Compound 27a]",RA (residual activity) E. coli gyrase,E. coli DNA gyrase; at 10 μM compound,98% (10 μM)
same,RA (residual activity) E. coli topo IV,E. coli topoisomerase IV; at 1 μM compound,103% (1 μM)
"Cc1[nH]c(C(=O)Nc2ccc(C(=O)NCC(=O)O)cc2N2CC[C@H](NC(=O)OC(C)(C)C)C2)c(Cl)c1Cl [Compound 8b, (S)-(3-(3-((tert-Butoxycarbonyl)amino)pyrrolidin-1-yl)-4-(3,4-dichloro-5-methyl-1H-pyrrole-2-carboxamido)benzoyl)glycine]",IC50,E. coli DNA gyrase,0.196 µM
"Cc1[nH]c(C(=O)Nc2ccc(C(=O)NCC(=O)O)cc2N2CC[C@@H](NC(=O)OC(C)(C)C)C2)c(Cl)c1Cl [Compound 8c, (R)-(3-(3-((tert-Butoxycarbonyl)amino)pyrrolidin-1-yl)-4-(3,4-dichloro-5-methyl-1H-pyrrole-2-carboxamido)benzoyl)glycine]",IC50,E. coli DNA gyrase,0.162 µM
"CC(C)(C)OC(=O)N1CCN(c2cc(C(=O)NCC(=O)O)ccc2NC(=O)c2cc(Br)c(Br)[nH]2)CC1 [Compound 9a, (3-(4-(tert-Butoxycarbonyl)piperazin-1-yl)-4-(4,5-dibromo-1H-pyrrole-2-carboxamido)benzoyl)glycine]",IC50,E. coli DNA gyrase,0.362 µM
"CC(C)(C)OC(=O)N[C@H]1CCN(c2cc(C(=O)NCC(=O)O)ccc2NC(=O)c2cc(Br)c(Br)[nH]2)C1 [Compound 9b, (S)-(3-(3-((tert-Butoxycarbonyl)amino)pyrrolidin-1-yl)-4-(4,5-dibromo-1H-pyrrole-2-carboxamido)benzoyl)glycine]",IC50,E. coli DNA gyrase,4.11 µM
"CC(C)(C)OC(=O)N[C@@H]1CCN(c2cc(C(=O)NCC(=O)O)ccc2NC(=O)c2cc(Br)c(Br)[nH]2)C1 [Compound 9c, (R)-(3-(3-((tert-Butoxycarbonyl)amino)pyrrolidin-1-yl)-4-(4,5-dibromo-1H-pyrrole-2-carboxamido)benzoyl)glycine]",IC50,E. coli DNA gyrase,5.39 µM
"Cc1[nH]c(C(=O)Nc2ccc(C(=O)NCC(=O)O)cc2N2CCNCC2)c(Cl)c1Cl [Compound 10a, 4-(5-((Carboxymethyl)carbamoyl)-2-(3,4-dichloro-5-methyl-1H-pyrrole-2-carboxamido)phenyl)piperazin-1-ium chloride]",remaining activity at 1 µM,E. coli topoisomerase IV; [6],93%
same,remaining activity at 10 µM,[1],78%
"Cc1[nH]c(C(=O)Nc2ccc(C(=O)NCC(=O)O)cc2N2CC[C@@H](N)C2)c(Cl)c1Cl [Compound 10c, (R)-1-(5-((Carboxymethyl)carbamoyl)-2-(3,4-dichloro-5-methyl-1H-pyrrole-2-carboxamido)phenyl)pyrrolidin-3-aminium chloride]",IC50,E. coli DNA gyrase,~0.02 µM
same,remaining activity at 40 µM,[1],112%
"O=C(O)CNC(=O)c1ccc(NC(=O)c2cc(Br)c(Br)[nH]2)c(N2CCNCC2)c1 [Compound 11a, 4-(5-((Carboxymethyl)carbamoyl)-2-(4,5-dibromo-1H-pyrrole-2-carboxamido)phenyl)piperazin-1-ium chloride]",remaining activity at 40 µM,[1],100%
"N[C@H]1CCN(c2cc(C(=O)NCC(=O)O)ccc2NC(=O)c2cc(Br)c(Br)[nH]2)C1 [Compound 11b, (S)-1-(5-((Carboxymethyl)carbamoyl)-2-(4,5-dibromo-1H-pyrrole-2-carboxamido)phenyl)pyrrolidin-3-aminium chloride]",IC50,E. coli DNA gyrase,0.235 µM
"N[C@@H]1CCN(c2cc(C(=O)NCC(=O)O)ccc2NC(=O)c2cc(Br)c(Br)[nH]2)C1 [Compound 11c, (R)-1-(5-((Carboxymethyl)carbamoyl)-2-(4,5-dibromo-1H-pyrrole-2-carboxamido)phenyl)pyrrolidin-3-aminium chloride]",IC50,E. coli DNA gyrase,0.996 µM
same,remaining activity at 10 µM,E. coli topoisomerase IV; [6],75%
"Cc1[nH]c(C(=O)Nc2ccc(C(=O)NCc3n[nH]c(=O)o3)cc2N2CCN(C(=O)OC(C)(C)C)CC2)c(Cl)c1Cl [Compound 13, tert-Butyl 4-(2-(3,4-dichloro-5-methyl-1H-pyrrole-2-carboxamido)-5-(((5-oxo-4,5-dihydro-1,3,4-oxadiazol-2-yl)methyl)carbamoyl)phenyl)piperazine-1-carboxylate]",IC50,E. coli DNA gyrase,0.483 µM
same,MIC,S. aureus ATCC 29213,1 mg/L
"Cc1[nH]c(C(=O)Nc2ccc(C(=O)NCc3n[nH]c(=O)o3)cc2N2CCNCC2)c(Cl)c1Cl [Compound 14, 4-(2-(3,4-Dichloro-5-methyl-1H-pyrrole-2-carboxamido)-5-(((5-oxo-4,5-dihydro-1,3,4-oxadiazol-2-yl)methyl)carbamoyl)phenyl)piperazin-1-ium chloride]",IC50,E. coli DNA gyrase,~0.02 µM
same,remaining activity at 10 µM,[1],111%
"Cc1[nH]c(C(=O)Nc2ccc(C(=O)O)cc2N2CCC[C@H](NC(=O)OC(C)(C)C)C2)c(Cl)c1Cl [Compound 18c, (S)-3-(3-((tert-Butoxycarbonyl)amino)piperidin-1-yl)-4-(3,4-dichloro-5-methyl-1H-pyrrole-2-carboxamido)benzoic acid]",remaining activity at 1 µM,E. coli DNA gyrase,67%
same,MIC,E. coli ATCC 25922,> 32 mg/L
same,MIC,P. aeruginosa ATCC 27853,> 32 mg/L
same,MIC,A. baumannii ATCC 19606,> 32 mg/L
same,MIC,[2],> 32 mg/L
same,MIC,K. aerogenes ATCC 13408,> 32 mg/L
"Cc1[nH]c(C(=O)Nc2ccc(C(=O)O)cc2N2CCCC(CNC(=O)OC(C)(C)C)C2)c(Cl)c1Cl (stereo not shown) [Compound 18i, 3-(3-(((tert-Butoxycarbonyl)amino)methyl)piperidin-1-yl)-4-(3,4-dichloro-5-methyl-1H-pyrrole-2-carboxamido)benzoic acid]",remaining activity at 0.1 µM,E. coli DNA gyrase,89%
same,remaining activity at 100 µM,[1],128%
same,MIC,E. coli ATCC 25922,> 32 mg/L
same,MIC,P. aeruginosa ATCC 27853,> 32 mg/L
same,MIC,A. baumannii ATCC 19606,> 32 mg/L
same,MIC,[2],> 32 mg/L
same,MIC,K. aerogenes ATCC 13408,> 32 mg/L
"COC(=O)c1ccc(NC(=O)c2[nH]c(C)c(Cl)c2Cl)c(N2CCCC(CN)C2)c1.Cl (stereo not shown) [Compound 19i, (1-(2-(3,4-Dichloro-5-methyl-1H-pyrrole-2-carboxamido)-5-(methoxycarbonyl)phenyl)piperidin-3-yl)methanaminium chloride]",IC50,E. coli DNA gyrase,0.0142 µM
same,IC50,E. coli topoisomerase IV,0.533 µM
same,MIC,S. aureus ATCC 29213,8 mg/L
same,MIC,[3],2 mg/L
same,MIC,[4],1 mg/L
same,MIC,E. coli ATCC 25922,4 mg/L
same,MIC,P. aeruginosa ATCC 27853,> 32 mg/L
same,MIC,A. baumannii ATCC 17978,8 mg/L
same,MIC,A. baumannii ATCC 19606,8 mg/L
same,MIC,K. pneumoniae ATCC 10031,8 mg/L
same,MIC,[2],> 32 mg/L
same,MIC,[5],> 64 mg/L
same,MIC,K. aerogenes ATCC 13408,> 32 mg/L
"Cc1[nH]c(C(=O)Nc2ccc(-c3n[nH]c(=O)o3)cc2N2CCN(C(=O)OC(C)(C)C)CC2)c(Cl)c1Cl [Compound 22a, tert-Butyl 4-(2-(3,4-dichloro-5-methyl-1H-pyrrole-2-carboxamido)-5-(5-oxo-4,5-dihydro-1,3,4-oxadiazol-2-yl)phenyl)piperazine-1-carboxylate]",IC50,E. coli DNA gyrase,0.059 µM
same,remaining activity at 1 µM,E. coli topoisomerase IV; [6],104%
same,remaining activity at 100 µM,[1],100%
"Cc1[nH]c(C(=O)Nc2ccc(-c3n[nH]c(=O)o3)cc2N2CCC[C@H](NC(=O)OC(C)(C)C)C2)c(Cl)c1Cl [Compound 22c, tert-Butyl (S)-(1-(2-(3,4-dichloro-5-methyl-1H-pyrrole-2-carboxamido)-5-(5-oxo-4,5-dihydro-1,3,4-oxadiazol-2-yl)phenyl)piperidin-3-yl)carbamate]",remaining activity at 0.1 µM,E. coli DNA gyrase,90%
same,MIC,S. aureus ATCC 29213,32 mg/L
same,MIC,E. coli ATCC 25922,> 32 mg/L
same,MIC,P. aeruginosa ATCC 27853,> 32 mg/L
same,MIC,A. baumannii ATCC 19606,> 32 mg/L
same,MIC,[2],> 32 mg/L
same,MIC,K. aerogenes ATCC 13408,> 32 mg/L
"Cc1[nH]c(C(=O)Nc2ccc(-c3n[nH]c(=O)o3)cc2N2CCOC(C)C2)c(Cl)c1Cl (stereo not shown) [Compound 22f, 3,4-Dichloro-5-methyl-N-(2-(2-methylmorpholino)-4-(5-oxo-4,5-dihydro-1,3,4-oxadiazol-2-yl)phenyl)-1H-pyrrole-2-carboxamide]",remaining activity at 100 µM,[1],98%
same,MIC,S. aureus ATCC 29213,> 64 mg/L
same,MIC,[3],> 64 mg/L
same,MIC,E. faecalis ATCC 29212,1 mg/L
same,MIC,E. coli ATCC 25922,> 64 mg/L
same,MIC,P. aeruginosa ATCC 27853,> 64 mg/L
same,MIC,A. baumannii ATCC 17978,> 64 mg/L
same,MIC,K. pneumoniae ATCC 10031,> 64 mg/L
same,MIC,[5],> 64 mg/L
"Cc1[nH]c(C(=O)Nc2ccc(-c3n[nH]c(=O)o3)cc2N2CC(C)OC(C)C2)c(Cl)c1Cl (stereo not shown) [Compound 22g, 3,4-Dichloro-N-(2-(2,6-dimethylmorpholino)-4-(5-oxo-4,5-dihydro-1,3,4-oxadiazol-2-yl)phenyl)-5-methyl-1H-pyrrole-2-carboxamide]",remaining activity at 100 µM,[1],97%
"Cc1[nH]c(C(=O)N(Cc2ccccc2)c2ccc(-c3n[nH]c(=O)o3)cc2)c(Cl)c1Cl [Compound 33, N-Benzyl-3,4-dichloro-5-methyl-N-(4-(5-oxo-4,5-dihydro-1,3,4-oxadiazol-2-yl)phenyl)-1H-pyrrole-2-carboxamide]",remaining activity at 1 µM,E. coli DNA gyrase,81%
same,remaining activity at 100 µM,[1],92%
